These results are taken from patent US20250222120A1, “SYNTHESIS OF NOVEL SMALL MOLECULE CARM1 DEGRADERS, COMPOUNDS FORMED THEREBY, AND PHARMACEUTICAL COMPOSITIONS CONTAINING THEM” (Wisconsin Alumni Research Foundation, priority 2024, published 2025).

One assay deals with T1, CARM1 (Homo sapiens, UniProt Q86X55).
T1 sequence (Q86X55 1-608): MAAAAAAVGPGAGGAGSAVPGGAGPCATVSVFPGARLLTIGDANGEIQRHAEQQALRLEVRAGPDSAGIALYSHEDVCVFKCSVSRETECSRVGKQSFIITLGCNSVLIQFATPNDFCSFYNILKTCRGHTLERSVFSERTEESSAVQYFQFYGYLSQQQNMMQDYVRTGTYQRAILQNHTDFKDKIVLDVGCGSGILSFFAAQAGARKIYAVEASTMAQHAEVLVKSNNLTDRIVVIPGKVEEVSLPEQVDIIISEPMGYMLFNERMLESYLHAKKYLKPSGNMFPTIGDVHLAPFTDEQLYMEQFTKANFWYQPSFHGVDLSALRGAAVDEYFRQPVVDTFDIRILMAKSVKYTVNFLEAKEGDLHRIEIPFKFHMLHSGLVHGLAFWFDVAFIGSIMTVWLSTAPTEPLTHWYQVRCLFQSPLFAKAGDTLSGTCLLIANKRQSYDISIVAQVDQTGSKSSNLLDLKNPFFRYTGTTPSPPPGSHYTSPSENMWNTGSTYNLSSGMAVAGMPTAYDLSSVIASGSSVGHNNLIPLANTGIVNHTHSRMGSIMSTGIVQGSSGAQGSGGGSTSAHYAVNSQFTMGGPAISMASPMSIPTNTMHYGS
Briefly: CARM1 degradation by western blot in BT474 cells. The class given is cell-based. To be noted: ER+/HER2+ BT474 cells, 0.5 μM, after 24 or 48 h. From the text:
FIGS. 7A-7F. […] Cell lysates were collected and CARM1, methyl-BAF155, total BAF155, methyl-PABP1, and total PABP1 levels were detected by Western blot. […] Cell lysates were collected and CARM1, methyl-BAF155, total BAF155 levels were detected by Western blot. […] Cell proliferation rate normalized to day 0 was plotted. […] Migrated cells were stained with 1% crystal violet and the percentage of migrated cells were plotted. Data mean±s.d. ***. P≤0.001.
Western Blot Assay. Cells were harvested and washed with Dulbecco's phosphate-buffered saline (PBS), then lysed with 1×RIPA lysis buffer (50 mM Tris pH 7.5, 150 mM NaCl, 1% NP-40, 0.5% sodium deoxycholate, and 0.1% sodium dodecyl sulfate) supplemented with 1 mM phenylmethylsulfonyl fluoride, 10 μg/mL aprotinin, 1 μM leupeptin, and 10 μg/mL pepstatin on ice for 20 min. The supernatant was collected after spinning down at 15000 RPM at 4 degrees Celsius for 10 min. The concentration of whole lysates was quantified using a Bradford assay. 50-75 μg of cell lysates was boiled in 4× Laemmli Loading Dye and boiled at 100 degrees Celsius for 10 min. 25 μg were run in 8% SDS-PAGE gels and transferred to nitrocellulose membranes. Blots were blocked in 5% skim milk in PBST [PBS and 0.1% Tween 20] for 45 min, then incubated with primary antibodies at 4 degrees Celsius overnight. […]

A further assay has as its system MDA-MB-231 cells. Kind of assay: Transwell migration assay, MDA-MB-231 cells. Format: cell-based. Here is the method:
Transwell Migration Assay. Cells were harvested and washed in serum-free DMEM. The wells of a 24-well plate were filled with 800 μL of DMEM with 10% FBS. Transwell inserts with […] pore size were then added to the wells with DMEM. Cells were resuspended in serum-free DMEM, then 1×10^5 cells in 200 μL were added to the upper chambers. Drug treatments were added to the lower chambers, then incubated for 20 h at 37° C. The cells on the upper surface were removed with cotton swabs. Migratory cells were fixed in 3.7% formaldehyde at room temperature, followed by 100% methanol at −20° C. Fixed cells were stained with 1% crystal violet in 20% methanol for 30 min. The migration area was quantified from five independent fields of view of the lower surface of the membrane under a microscope.

Structures are written as SMILES.

On to `CNCCN1CCC(c2cc(CN(C)C(=O)c3cccc(Oc4ccc(OCC(=O)N5CCC(CN6CCC(CN7CCN(CC(=O)N[C@H](C(=O)N8C[C@H](O)C[C@H]8C(=O)N[C@@H](C)c8ccc(-c9scnc9C)cc8)C(C)(C)C)CC7)CC6)CC5)cc4)c3)ccn2)CC1` [Compound 3b, (2S,4R)-1-((S)-3,3-dimethyl-2-(2-(4-((1-((1-(2-(4-(3-(methyl((2-(1-(2-(methylamino)ethyl)piperidin-4-yl)pyridin-4-yl)methyl)carbamoyl)phenoxy)phenoxy)acetyl)piperidin-4-yl)methyl)piperidin-4-yl)methyl)piperazin-1-yl)acetamido)butanoyl)-4-hydroxy-N—((S)-1-(4-(4-methylthiazol-5-yl)phenyl)ethyl)pyrrolidine-2-carboxamide], for which the CARM1 degradation result on CARM1 is “effectively degraded”. For the same compound, the “Dose lower than the corresponding inhibitor for the same anti-migratory effects” value in the assay on MDA-MB-231 cells (0.5 μM 3b versus 10 μM TP-064) was found to be 20 fold. In addition, in the assay on MDA-MB-231 cells (0.5 μM, transwell, 20 h), the Cell migration result is listed as “inhibited cell migration at a similar level”.
